Measured values as given in ChEMBL document CHEMBL1131718, “Syntheses of (+/-)-shinflavanone and its structural analogues as potent inhibitors of bone resorption pits formation” (Bioorg Med Chem Lett, 1999).
≈ marks a conversion by molar mass, not a printed value.

Assays:
Format in all cases: functional
[1] = Cytotoxicity of compound was measured on osteoclastic cells.
[2] = Ability to inhibit the resorption pits formation by osteoclast-like cell(OCL) induced by 1-alpha,25-dihydroxy vitamin D3.
[3] = Ability to inhibit the resorption pits formation by osteoclast-like cell(OCL) induced by 1-alpha,25-dihydroxy vitamin D3 at conc. 0.37 ug/ml.
[4] = Ability to inhibit the resorption pits formation by osteoclast-like cell(OCL) induced by 1-alpha,25-dihydroxy vitamin D3 at conc. 1.11 ug/ml.
[5] = Ability to inhibit the resorption pits formation by osteoclast-like cell(OCL) induced by 1-alpha,25-dihydroxy vitamin D3 at conc. 10.00 ug/ml.
[6] = Ability to inhibit the resorption pits formation by osteoclast-like cell(OCL) induced by 1-alpha,25-dihydroxy vitamin D3 at conc. 3.33 ug/ml.
[7] = Bone resorption pits formation by osteoclast-like cell(OCL) induced by 1-alpha,25-dihydroxy vitamin D3 at 0.37 ug/ml concentration
[8] = Bone resorption pits formation by osteoclast-like cell(OCL) induced by 1-alpha,25-dihydroxy vitamin D3 at 1.11 ug/ml concentration
[9] = Bone resorption pits formation by osteoclast-like cell(OCL) induced by 1-alpha,25-dihydroxy vitamin D3 at 10 ug/ml concentration
[10] = Bone resorption pits formation by osteoclast-like cell(OCL) induced by 1-alpha,25-dihydroxy vitamin D3 at 3.33 ug/ml concentration

Question: What does the source list for `CC(C)=CCc1cc(C2CC(=O)c3cc(CC=C(C)C)c(O)cc3O2)ccc1O` (centres undefined)?
Answer: CC50 [1]: 18.2 mg/L (≈ 46.4 µM); IC50 [2]: 5.7 mg/L (≈ 14.5 µM); inhibition at 0.37 µg/mL [3]: 21.7%; inhibition at 1.11 µg/mL [4]: 41.2%; inhibition at 10 µg/mL [5]: 84.2%; inhibition at 3.33 µg/mL [6]: 41.3%; No. of pits [7]: 112; No. of pits [8]: 87; No. of pits [9]: 23; No. of pits [10]: 84

Question: What does the source list for `CC(C)=CCc1cc(C2CC(=O)c3ccc4c(c3O2)C=CC(C)(C)O4)ccc1O` (centres undefined)?
Answer: CC50 [1]: 16.8 mg/L (≈ 43 µM); IC50 [2]: 0.7 mg/L (≈ 1.79 µM); inhibition at 0.37 µg/mL [3]: 48.3%; inhibition at 1.11 µg/mL [4]: 54.1%; inhibition at 10 µg/mL [5]: 78.1%; inhibition at 3.33 µg/mL [6]: 62.2%; No. of pits [7]: 74; No. of pits [8]: 68; No. of pits [9]: 32; No. of pits [10]: 54

Question: What does the source list for `CC(C)=CCc1cc(C2CC(=O)c3cc(CC=C(C)C)c(O)c(CC=C(C)C)c3O2)ccc1O` (centres undefined)?
Answer: CC50 [1]: 10.4 mg/L (≈ 22.6 µM); IC50 [2]: 10.9 mg/L (≈ 23.7 µM); inhibition at 0.37 µg/mL [3]: < 5%; inhibition at 1.11 µg/mL [4]: 18.9%; inhibition at 10 µg/mL [5]: 45.2%; inhibition at 3.33 µg/mL [6]: 24.4%; No. of pits [7]: 150; No. of pits [8]: 120; No. of pits [9]: 80; No. of pits [10]: 108

Question: Which results are given for `CO[C@H]1[C@@H](OC)C[C@H](C)[C@@H](OC)C2=CC(=O)C=C(NC(=O)/C(C)=C/C=C/[C@H](OC)[C@@H](OC(N)=O)/C(C)=C/[C@@H]1C)C2=O` [HERBIMYCIN]?
Answer: CC50 [1]: 1.72 mg/L (≈ 2.99 µM); IC50 [2]: 1.1 mg/L (≈ 1.91 µM); inhibition at 0.37 µg/mL [3]: 37.8%; inhibition at 1.11 µg/mL [4]: 50.7%
